Measured values as given in US5986108A, “4-substitued-3-[1 or 2 amino acid residue]-azetidin-2-one derivatives useful as cysteine proteinase inhibitor” (Synphar Laboratories, Inc., priority 1997, dated 1999).
Like-named read-outs stand apart in the source and are kept apart here.

Legend:
Format in all cases: biochemical
Cathepsin B = Cathepsin B (Rattus norvegicus, UniProt P00787); assay: In vitro assay of inhibition of Cathepsin B (N-CBZ-Phe-Arg-AMC substrate)
Experimental: After 10 min of incubation at room temperature a 20 μl of 5 mM substrate (N-CBZ-Phe-Arg-AMC, dissolved in DMSO) was added to initiate reaction. Reading is followed up for 10 min at the Fluoroscan reader (excitation at 380 nm, emission at 460 nm).

papain = target: T1, papain (Carica papaya, UniProt P00784); assay: Assay of inhibition of papain (N-CBZ-Pro-Phe-Arg-pNA substrate)
T1 sequence (P00784 134-345): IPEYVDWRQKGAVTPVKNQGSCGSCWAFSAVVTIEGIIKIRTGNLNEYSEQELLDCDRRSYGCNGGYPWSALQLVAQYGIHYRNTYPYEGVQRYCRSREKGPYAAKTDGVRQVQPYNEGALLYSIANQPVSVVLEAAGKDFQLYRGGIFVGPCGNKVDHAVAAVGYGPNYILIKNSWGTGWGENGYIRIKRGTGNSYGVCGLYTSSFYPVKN
Experimental: To a 170 μl of enzyme-buffer mixture (enzyme:papain, diluted to give 30 mOD/min, buffer: 0.2M potassium phosphate, 1.0 mM EDTA, 5 mML Cysteine, pH6.5) a 10 μl of inhibitor (dissolved in DMSO) was added. After 10 min of incubation at room temperature, 20 μl of 10 mM substrate (N-CBZ-Pro-Phe-Arg-pNA, dissolved in DMSO) was added to initiate reaction. Reading is followed up for 3 min at the Thermomax plate reader(absorbance at 405 nm).
A plot of percentage of inhibition vs inhibitor concentration is obtained, and IC50 is determined using a linear regression calculations (concentration of inhibitor which will give 50% inhibition).

Cathepsin L = Cathepsin L (Rattus norvegicus, UniProt P07154); assay: Assay of inhibition of Cathepsin L (N-CBZ-Phe-Arg-AMC substrate)
Cathepsin L, sequence (P07154 114-334): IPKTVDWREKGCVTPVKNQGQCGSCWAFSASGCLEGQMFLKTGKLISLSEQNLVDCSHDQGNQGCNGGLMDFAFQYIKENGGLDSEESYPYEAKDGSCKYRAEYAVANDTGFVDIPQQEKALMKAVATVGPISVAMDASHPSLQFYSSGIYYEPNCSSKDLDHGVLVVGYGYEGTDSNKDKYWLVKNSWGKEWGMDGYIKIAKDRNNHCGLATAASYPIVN
Experimental: After 10 min of incubation at room temperature a 20 μl of 1 mM substrate (N-CBZ-Phe-Arg-AMC, dissolved in DMSO) was added to initiate reaction. Reading is followed up for 10 min at the Fluoroscan reader (excitation at 380 nm, emission at 460 nm).

[1] = r rat CathB, pH5.1, 10 min preincubation at room temperature, read-out: IC50, Cathepsin B
[2] = r rat CathL, pH5.0, 10 min preincubation at room temperature, read-out: IC50, Cathepsin L
[3] = pH6.5, 10 min preincubation at room temperature, read-out: IC50, Papain

Cathepsin B, sequence (P00787 80-339): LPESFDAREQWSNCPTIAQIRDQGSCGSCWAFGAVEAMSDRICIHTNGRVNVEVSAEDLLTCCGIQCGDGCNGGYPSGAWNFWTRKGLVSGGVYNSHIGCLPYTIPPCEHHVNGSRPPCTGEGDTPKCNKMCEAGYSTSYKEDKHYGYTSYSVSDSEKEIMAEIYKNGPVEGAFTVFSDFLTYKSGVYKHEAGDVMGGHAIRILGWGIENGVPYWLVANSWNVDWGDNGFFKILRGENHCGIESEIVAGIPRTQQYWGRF

SMILES	IC50 (Cathepsin B; [1])	IC50 (papain)	IC50 (Cathepsin L)	IC50 (Cathepsin L; [2])	IC50 (papain; [3])	IC50 (Cathepsin B)
C[C@H]1[C@H](NC(=O)CNC(=O)[C@H](Cc2ccccc2)NC(=O)OCc2ccccc2)C(=O)N1S(=O)(=O)O [Example 6, Potassium (3S,4S)-3-(N-benzyloxycarbonyl-L-phenylalanyl-glycinyl)-amino-4-methyl-azetidin-2-one-1-sulfonate]	> 25 µM	> 25000 nM	–	–	–	–
CC(=O)O[C@@H]1NC(=O)[C@H]1NC(=O)[C@H](CC(C)C)NC(=O)OCc1ccccc1 [Example 8, (3S,4S)-3-(N-benzyloxycarbonyl-L-leucyl)-amino-4-acetoxy-azetidin-2-one]	–	731 nM	30 nM	–	–	–
CC(=O)N[C@@H](Cc1ccccc1)C(=O)N[C@@H]1C(=O)N[C@H]1OC(C)=O [Example 9]	42.3 µM	–	–	2700 nM	228 nM	–
N[C@@H](Cc1ccc(O[C@@H]2NC(=O)[C@H]2NC(=O)[C@H](Cc2ccccc2)NC(=O)CCc2ccccc2)cc1)C(=O)O [Example 29B, (3S,4S)-3-{N-(3-phenylpropionoyl)-L-phenylalanyl}-amino-4-{4-(L-2-amino-2-carboxy-ethyl)-phenoxy}-azetidin-2-one]	> 46 µM	368 nM	–	292 nM	–	–
CC(=O)O[C@@H]1NC(=O)[C@H]1NC(=O)[C@H](C)NC(=O)OCc1ccccc1 [Example 33, (3S,4S)-3-(N-benzyloxycarbonyl-L-alanyl)-amino-4-acetoxy-azetidin-2-one]	14.3 µM	7030 nM	–	35900 nM	–	–
CC(C)C[C@H](NC(=O)[C@H]1O[C@@H]1C(=O)O)C(=O)NCCCCN=C(N)N [Example E-64, reference compound]	0.005 µM	–	–	15 nM	2.5 nM	–
CC(=O)N[C@@H](CC(C)C)C(=O)N[C@@H](CC(C)C)C(=O)N[C@H](C=O)CCCNC(=N)N [Leupeptin, reference compound]	–	–	–	8 nM	12 nM	0.013 µM
